Assay results reported in patent publication US11319298B2 (Merck Sharp & Dohme Corp., priority 2016, dated 2022).

target: T1, human M4 muscarinic acetylcholine receptor (Homo sapiens, UniProt P08173); experiment: human FLIPR-based M4 PAM assay, CHO-K1 cells stably transfected with human M4 receptor and chimeric G-protein Gαqi5; format: cell-based; settings: inflection point (IP) of dose response curve; acetylcholine added at 20% of maximum response; CHO-K1 human M4/Gαqi5, FLIPR Tetra
T1 construct: expressed in transfected cells; host or cells: CHO-K1
T1 sequence (P08173 1-479): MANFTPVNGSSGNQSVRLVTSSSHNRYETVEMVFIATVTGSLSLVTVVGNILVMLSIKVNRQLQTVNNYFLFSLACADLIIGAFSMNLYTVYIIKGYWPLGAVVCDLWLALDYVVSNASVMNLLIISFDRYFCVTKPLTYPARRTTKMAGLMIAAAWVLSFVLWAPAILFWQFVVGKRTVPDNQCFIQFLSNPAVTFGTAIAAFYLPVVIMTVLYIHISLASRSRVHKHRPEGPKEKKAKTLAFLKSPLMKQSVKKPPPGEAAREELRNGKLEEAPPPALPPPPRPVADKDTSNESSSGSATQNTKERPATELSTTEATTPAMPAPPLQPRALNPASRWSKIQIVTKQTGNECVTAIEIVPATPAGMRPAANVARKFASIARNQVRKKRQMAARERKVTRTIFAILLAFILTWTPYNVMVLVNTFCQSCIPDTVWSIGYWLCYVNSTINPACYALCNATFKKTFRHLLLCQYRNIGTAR
Procedure, shortened: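 The FLIPR read recorded 4 min after compound was added across a concentration range, then 3.5 min after acetylcholine giving 20% of its maximal response, with an occasional extra EC70 addition. Cells were dye-loaded for about 1 h at 37 °C. Potency is the curve inflection point from a four-parameter logistic fit.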

Row | EC50 [nM] | Structure (SMILES)
1 | 635 | COc1ccc(OC2CCN(c3nc(C(=O)NCc4ccncc4Cl)nc(Cl)c3C)CC2)cn1 [Example 211, 4-chloro-N-((3-chloropyridin-4-yl)methyl)-6-(4-((6-methoxypyridin-3-yl)oxy)piperidin-1-yl)-5-methylpyrimidine-2-carboxamide]
2 | 82 | COC(=O)c1cc(C)c(N2CCC(Oc3ccc(OC)cc3)CC2)nn1 [Example 10, methyl 6-(4-(4-methoxyphenoxy)piperidin-1-yl)-5-methylpyridazine-3-carboxylate]
3 | 629 | COc1ccc(OC2CCN(c3nnc(C(=O)NCc4ccc5c(c4)CCO5)cc3C)CC2)cn1 [Example 176, N-(2,3-dihydro-1-benzofuran-5-ylmethyl)-6-{4-[(6-methoxypyridin-3-yl)oxy]piperidin-1-yl}-5-methylpyridazine-3-carboxamide]
4 | 278 | Cc1cc(C(=O)NCc2ccncc2)nnc1N1CCC(Oc2cnn(CC3CC3)c2)CC1 [Example 39, 6-(4-((1-(cyclopropylmethyl)-1H-pyrazol-4-yl)oxy)piperidin-1-yl)-5-methyl-N-(pyridin-4-ylmethyl)pyridazine-3-carboxamide]
5 | 808 | COc1ccc(OC2CCN(c3nnc(C(=O)NC4CCNC4=O)cc3C)CC2)cn1 (centres unmarked) [Example 180, 6-{4-[(6-methoxypyridin-3-yl)oxy]piperidin-1-yl}-5-methyl-N-(2-oxopyrrolidin-3-yl)pyridazine-3-carboxamide]
6 | 210 | Cc1c(Cl)nc(CO)nc1N1CCC(Oc2ccc3c(c2)C(=O)N(C)C3)CC1 [Example 33, 6-((1-(6-chloro-2-(hydroxymethyl)-5-methypyrimidin-4-yl)piperidin-4-yl)oxy)-2-methylisoindolin-1-one]
7 | 100 | COc1ncc(OC2CCN(c3nc(CO)nc(Cl)c3C)CC2)cc1Cl [Example 65, (4-chloro-6-(4-((5-chloro-6-methoxypyridin-3-yl)oxy)piperidin-1-yl)-5-methylpyrimidin-2-yl)methanol]
8 | 18 | Cc1cc(C(=O)NCc2ccncc2)nnc1N1CCC(Oc2ccc3c(c2)OCCO3)CC1 [Example 108, 6-[4-(2,3-dihydro-1,4-benzodioxin-6-yloxy)piperidin-1-yl]-5-methyl-N-(pyridin-4-ylmethyl)pyridazine-3-carboxamide]
9 | 1360 | Cc1c(Cl)nc(CO)nc1N1CCC(Oc2ccc(S(C)(=O)=O)cc2)CC1 [Example 8, (4-chloro-5-methyl-6-(4-(4-(methylsulfonyl)phenoxy)piperidin-1-yl)pyrimidin-2-yl)methanol]
10 | 118 | Cc1cc(C(=O)NCc2ccccc2Cl)nnc1N1CCC(Oc2cccc(C#N)c2)CC1 [Example 199, N-(2-chlorobenzyl)-6-[4-(3-cyanophenoxy)piperidin-1-yl]-5-methylpyridazine-3-carboxamide]
11 | 127 | Cc1cc(C(=O)NC2C3CC2C3)nnc1N1CCC(Oc2ccc3c(c2)OCCO3)CC1 (centres unmarked) [Example 131, N-bicyclo[1.1.1]pent-2-yl-6-[4-(2,3-dihydro-1,4-benzodioxin-6-yloxy)piperidin-1-yl]-5-methylpyridazine-3-carboxamide]
12 | 168 | COc1ccc(OC2CCN(c3nc(C(N)=O)nc(Cl)c3C)CC2)cn1 [Example 206, 4-chloro-6-(4-((6-methoxypyridin-3-yl)oxy)piperidin-1-yl)-5-methylpyrimidine-2-carboxamide]
13 | 446 | COc1ccc(OC2CCN(c3nnc(C(=O)NC4CCc5cc(F)ccc5C4)cc3C)CC2)cn1 (centres unmarked) [Example 168, N-(6-fluoro-1,2,3,4-tetrahydronaphthalen-2-yl)-6-{4-[(6-methoxypyridin-3-yl)oxy]piperidin-1-yl}-5-methylpyridazine-3-carboxamide]
14 | 573 | COc1ccc(OC2CCN(c3nnc(C(=O)NCc4ccc5c(c4)CNC5=O)cc3C)CC2)cn1 [Example 175, 6-{4-[(6-methoxypyridin-3-yl)oxy]piperidin-1-yl}-5-methyl-N-[(1-oxo-2,3-dihydro-1H-isoindol-5-yl)methyl]pyridazine-3-carboxamide]
15 | 427 | COc1ccc(OC2CCN(c3nnc(C(=O)N[C@H]4CCc5cc(F)ccc5C4)cc3C)CC2)cn1 [Example 184A, (S)-N-(6-fluoro-1,2,3,4-tetrahydronaphthalen-2-yl)-6-{4-[(6-methoxypyridin-3-yl)oxy]piperidin-1-yl}-5-methylpyridazine-3-carboxamide]
16 | 2100 | COc1ccc(OC2CCN(c3ncnc(N4CC5(COC5)C4)c3C)CC2)cn1 [Example 233, 6-(6-(4-((6-methoxypyridin-3-yl)oxy)piperidin-1-yl)-5-methylpyrimidin-4-yl)-2-oxa-6-azaspiro[3.3]heptane]
17 | 1020 | COc1ccc(OC2CCN(c3nc(C(=O)NC4CCc5cccnc5C4)nc(Cl)c3C)CC2)cn1 (centres unmarked) [Example 217, 4-chloro-6-(4-((6-methoxypyridin-3-yl)oxy)piperidin-1-yl)-5-methyl-N-(5,6,7,8-tetrahydroquinolin-7-yl)pyrimidine-2-carboxamide]
18 | 417 | COc1ccc(OC2CCN(c3nnc(C(=O)NCc4ncn[nH]4)cc3C)CC2)cn1 [Example 167, 6-{4-[(6-methoxypyridin-3-yl)oxy]piperidin-1-yl}-5-methyl-N-(1H-1,2,4-triazol-5-ylmethyl)pyridazine-3-carboxamide]
19 | 435 | Cc1c(Cl)nc(C2CC2)nc1N1CCC(Oc2cccnc2)CC1 [Example 95B, 4-chloro-2-cyclopropyl-5-methyl-6-(4-(pyridin-3-yloxy)piperidin-1-yl)pyrimidine]
20 | 44 | COc1ccc(OC2CCN(c3ncnc(Cl)c3C)CC2)cn1 [Example 49, 4-chloro-6-(4-((6-methoxypyridin-3-yl)oxy)piperidin-1-yl)-5-methylpyrimidine]
21 | 1250 | COc1ccc(OC2CCN(c3nnc(C(=O)NCc4ccc(OC)c(C(F)(F)F)c4)cc3C)CC2)cn1 [Example 186, 6-{4-[(6-methoxypyridin-3-yl)oxy]piperidin-1-yl}-N-[4-methoxy-3-(trifluoromethyl)benzyl]-5-methylpyridazine-3-carboxamide]
22 | 925 | Cc1c(-c2ccoc2)ncnc1N1CCC(Oc2cccc(C#N)c2)CC1 [Example 249, 3-((1-(6-(furan-3-yl)-5-methylpyrimidin-4-yl)piperidin-4-yl)oxy)benzonitrile]
23 | 126 | Cc1c(Cl)nc(CO)nc1N1CCC(Oc2ccc3c(ccn3C)c2)CC1 [Example 29, (4-chloro-5-methyl-6-(4-((1-methyl-1H-indol-5-yl)oxy)piperidin-1-yl)pyrimidin-2-yl)methanol]
24 | 1130 | Cc1nnc(N2CCC(Oc3cccc(C#N)c3)CC2)c(C#N)c1C [Example 11, 3-(4-(3-cyanophenoxy)piperidin-1-yl)-5,6-dimethylpyridazine-4-carbonitrile]
25 | 96 | COc1ccc(OC2CCN(c3nnc(C(=O)Nc4ccncc4)cc3C)CC2)cn1 [Example 120, 6-{4-[(6-methoxypyridin-3-yl)oxy]piperidin-1-yl}-5-methyl-N-pyridin-4-ylpyridazine-3-carboxamide]
26 | 342 | C=Cc1ncnc(N2CCC(Oc3ccc(OC)nc3)CC2)c1C [Example 243, 4-(4-((6-methoxypyridin-3-yl)oxy)piperidin-1-yl)-5-methyl-6-vinylpyrimidine]
